Where two headings read alike, the source gives them in different places. Numbered stars: 1 amine (or outer) side, 2 acyl side, 3 side chain; on linkers, the order of the positions; unused ones are H or OH. Square brackets hold non-standard residues; d marks the D form. Side chains are listed from the residue outwards. Peptide text beside a SMILES is read from it. * marks the point of attachment. C20 diacid = O=C(O)CCCCCCCCCCCCCCCCCCC(=O)*; γGlu = O=C(O)[C@H](CCC(=O)[*:2])N[*:1]; AEEA = NCCOCCOCC(=O)O; Aib = CC(C)(N)C(=O)O
Legend:
[1] = Fibril formation of crude library peptides (Thioflavin T); format: physicochemical; set-up: key: average ThT fluorescence emission at 480 nm (ex 450 nm), raw units; conditions: Physical stability of peptides
How it was run: (§1)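 Values reflect mean ThT emission (ex 450, em 480 nm) over 72 h at 40° C, read every 10 min after 5 min shaking at 700 rpm, plus a single initial absorbance at 600 nm for turbidity. Peptides were at 267 μM, pH 4.0 acetate or pH 7.0 phosphate (50 mM), with 4 μM ThT.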

[2] = target: GLP1R (Homo sapiens, UniProt P43220); assay: hGLP1R potency, cAMP accumulation in CHO-K1 cells stably overexpressing hGLP1R; format: cell-based; set-up: host or cells: CHO-K1; conditions: for Selectivity: SCTR EC50/GLP1R EC50 ratio; for EC50: cAMP accumulation, CHO-K1 cells overexpressing hGLP1R; for SCTR EC50/GLP1R EC50 ratio: selectivity for hGLP1R over hSCTR, cAMP accumulation in CHO-K1 cells
How it was run: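 Cells were plated in DPBS with 0.05% casein and 0.5 mM IBMX, then stimulated for 30 min at room temperature with test compound. cAMP was read by TR-FRET after one hour. EC50 came from variable-slope sigmoid nonlinear regression; purified peptides ran as 11-point 3-fold series, n=2.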

[3] = Turbidity of crude library peptides (absorbance at 600 nm); format: physicochemical; conditions: Physical stability of peptides
How it was run: as §1

[4] = target: SCTR (Homo sapiens, UniProt P47872); assay: hSCTR potency, cAMP accumulation in CHO-K1 cells stably overexpressing hSCTR; format: cell-based; set-up: alternatively Euroscreen ES-712-AF; FAST-0161L; host or cells: CHO-K1; conditions: cAMP accumulation, CHO-K1 cells overexpressing hSCTR
How it was run: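 Division-arrested CHO-K1 cells stably expressing hSCTR were plated in DPBS with 0.05% casein and 0.5 mM IBMX, then stimulated with test peptide for 30 min at room temperature. cAMP was read by HTRF after one hour. EC50 came from variable-slope sigmoidal nonlinear regression.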

[5] = read-out: pEC50 hGLPR1 (converted)
[6] = read-out: pEC50 hSCTR (converted)
[7] = read-out: hGLP1R pEC50 (converted)
[8] = read-out: hSCTR pEC50 (converted)

Sequence of GLP1R (P43220 24-463): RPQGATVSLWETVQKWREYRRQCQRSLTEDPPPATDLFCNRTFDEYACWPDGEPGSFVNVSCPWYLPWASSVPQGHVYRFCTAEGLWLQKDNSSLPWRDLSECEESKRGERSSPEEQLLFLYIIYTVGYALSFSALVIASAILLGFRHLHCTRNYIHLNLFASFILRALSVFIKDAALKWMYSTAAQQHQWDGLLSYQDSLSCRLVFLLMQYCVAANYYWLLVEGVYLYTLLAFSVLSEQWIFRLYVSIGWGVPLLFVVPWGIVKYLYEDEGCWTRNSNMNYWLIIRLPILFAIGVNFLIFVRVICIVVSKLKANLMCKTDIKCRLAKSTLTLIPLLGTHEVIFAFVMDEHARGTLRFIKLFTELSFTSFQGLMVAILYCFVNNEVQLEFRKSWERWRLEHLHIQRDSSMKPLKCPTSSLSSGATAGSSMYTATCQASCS
Sequence of SCTR (P47872 23-440): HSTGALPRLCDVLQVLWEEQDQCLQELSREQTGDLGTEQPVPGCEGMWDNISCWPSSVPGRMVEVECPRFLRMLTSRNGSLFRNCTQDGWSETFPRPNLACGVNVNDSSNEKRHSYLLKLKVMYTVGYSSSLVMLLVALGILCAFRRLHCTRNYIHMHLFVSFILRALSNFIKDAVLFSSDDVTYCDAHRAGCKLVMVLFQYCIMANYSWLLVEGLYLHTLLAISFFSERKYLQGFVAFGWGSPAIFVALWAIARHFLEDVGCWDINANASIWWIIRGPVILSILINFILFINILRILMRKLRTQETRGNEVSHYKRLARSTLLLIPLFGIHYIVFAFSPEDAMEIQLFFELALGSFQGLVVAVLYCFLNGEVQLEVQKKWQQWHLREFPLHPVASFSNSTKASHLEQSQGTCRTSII

Compound | Fibril formation [1] | Selectivity [2] | EC50 [2, 5] | Turbidity (pH 7) [3] | EC50 [4, 6] | EC50 [2, 7] | SCTR EC50/GLP1R EC50 ratio [2] | EC50 [4, 8]
CC(C)C[C@H](NC(=O)[C@H](Cc1ccccc1)NC(=O)[C@H](CCCNC(=N)N)NC(=O)[C@H](CCC(N)=O)NC(=O)[C@H](CCC(=O)O)NC(=O)[C@H](C)NC(=O)[C@H](C)NC(=O)[C@H](CCC(=O)O)NC(=O)[C@H](CCC(=O)O)NC(=O)[C@H](CCCCNC(=O)COCCOCCNC(=O)COCCOCCNC(=O)CC[C@H](NC(=O)CCCCCCCCCCCCCCCCCCC(=O)O)C(=O)O)NC(=O)[C@H](CC(C)C)NC(=O)[C@H](CCCNC(=N)N)NC(=O)[C@H](CO)NC(=O)[C@@H](NC(=O)[C@H](CC(=O)O)NC(=O)[C@H](CO)NC(=O)[C@@H](NC(=O)[C@H](Cc1ccccc1)NC(=O)[C@@H](NC(=O)CNC(=O)[C@H](CCC(=O)O)NC(=O)C(C)(C)NC(=O)[C@@H](N)Cc1c[nH]cn1)[C@@H](C)O)[C@@H](C)O)C(C)C)C(=O)N[C@@H](CCC(=O)O)C(=O)N[C@@H](Cc1c[nH]cn1)C(=O)N[C@@H](CC(C)C)C(=O)N[C@H](C(N)=O)C(C)C [compound 22] (H-H[Aib]EGTFTSDVSRLK([AEEA-AEEA-γGlu-C20 diacid])EEAAEQRFLEHLV-NH2) | 16453 | 20678 | 0.02 nM | 0.08 | 398 nM | – | – | –
CC(C)C[C@H](NC(=O)[C@H](Cc1ccccc1)NC(=O)[C@H](CCCNC(=N)N)NC(=O)[C@H](CCC(N)=O)NC(=O)[C@H](CC(C)C)NC(=O)C(C)(C)NC(=O)[C@H](C)NC(=O)[C@H](CCC(=O)O)NC(=O)[C@H](CCC(=O)O)NC(=O)[C@H](CCCCNC(=O)COCCOCCNC(=O)COCCOCCNC(=O)CC[C@H](NC(=O)CCCCCCCCCCCCCCCCCCC(=O)O)C(=O)O)NC(=O)[C@H](CC(C)C)NC(=O)[C@H](Cc1c[nH]c2ccccc12)NC(=O)[C@H](CO)NC(=O)[C@@H](NC(=O)[C@H](CC(=O)O)NC(=O)[C@H](CO)NC(=O)[C@@H](NC(=O)[C@H](Cc1ccccc1)NC(=O)[C@@H](NC(=O)CNC(=O)[C@H](CCC(=O)O)NC(=O)C(C)(C)NC(=O)[C@@H](N)Cc1c[nH]cn1)[C@@H](C)O)[C@@H](C)O)C(C)C)C(=O)N[C@@H](CCC(=O)O)C(=O)N[C@@H](Cc1c[nH]cn1)C(=O)N[C@@H](CC(C)C)C(=O)N[C@H](C(N)=O)C(C)C [compound 174] (H-H[Aib]EGTFTSDVSWLK([AEEA-AEEA-γGlu-C20 diacid])EEA[Aib]LQRFLEHLV-NH2) | 3729 | – | – | 0.08 | – | 0.0126 nM | 7022 | 100 nM
CC(C)C[C@H](NC(=O)[C@H](Cc1ccccc1)NC(=O)[C@H](CCCNC(=N)N)NC(=O)[C@H](CCC(N)=O)NC(=O)[C@H](CC(C)C)NC(=O)C(C)(C)NC(=O)[C@H](C)NC(=O)[C@H](CCC(=O)O)NC(=O)[C@H](CCC(=O)O)NC(=O)[C@H](CCCCNC(=O)COCCOCCNC(=O)COCCOCCNC(=O)CC[C@H](NC(=O)CCCCCCCCCCCCCCCCCCC(=O)O)C(=O)O)NC(=O)[C@H](CC(C)C)NC(=O)[C@H](CC(C)C)NC(=O)[C@H](CO)NC(=O)[C@@H](NC(=O)[C@H](CC(=O)O)NC(=O)[C@H](CO)NC(=O)[C@@H](NC(=O)[C@H](Cc1ccccc1)NC(=O)[C@@H](NC(=O)CNC(=O)[C@H](CCC(=O)O)NC(=O)C(C)(C)NC(=O)[C@@H](N)Cc1c[nH]cn1)[C@@H](C)O)[C@@H](C)O)C(C)C)C(=O)N[C@@H](CCC(=O)O)C(=O)N[C@@H](Cc1c[nH]cn1)C(=O)N[C@@H](CC(C)C)C(=O)N[C@H](C(N)=O)C(C)C [compound 149] (H-H[Aib]EGTFTSDVSLLK([AEEA-AEEA-γGlu-C20 diacid])EEA[Aib]LQRFLEHLV-NH2) | 2878 | – | – | 0.08 | – | 0.0126 nM | 2619 | 31.6 nM

Results, then the compound that gave them:

Fibril formation [1] | Selectivity [2] | EC50 [2, 5] | Turbidity (pH 7) [3] | EC50 [4, 6] | EC50 [2, 7] | SCTR EC50/GLP1R EC50 ratio [2] | EC50 [4, 8] | Compound
16290 | 5236 | 0.0251 nM | 0.08 | 126 nM | – | – | – | CC(C)C[C@H](NC(=O)[C@H](Cc1ccccc1)NC(=O)[C@H](CCCNC(=N)N)NC(=O)[C@H](CCC(N)=O)NC(=O)[C@@H](NC(=O)[C@H](C)NC(=O)[C@H](C)NC(=O)C(C)(C)NC(=O)[C@H](CCC(=O)O)NC(=O)[C@H](CCCCNC(=O)COCCOCCNC(=O)COCCOCCNC(=O)CC[C@H](NC(=O)CCCCCCCCCCCCCCCCCCC(=O)O)C(=O)O)NC(=O)[C@H](CC(C)C)NC(=O)[C@H](Cc1ccc(O)cc1)NC(=O)[C@H](CO)NC(=O)[C@@H](NC(=O)[C@H](CC(=O)O)NC(=O)[C@H](CO)NC(=O)[C@@H](NC(=O)[C@H](Cc1ccccc1)NC(=O)[C@@H](NC(=O)CNC(=O)[C@H](CCC(=O)O)NC(=O)C(C)(C)NC(=O)[C@@H](N)Cc1c[nH]cn1)[C@@H](C)O)[C@@H](C)O)C(C)C)[C@@H](C)O)C(=O)N[C@@H](CCC(=O)O)C(=O)N[C@@H](Cc1c[nH]cn1)C(=O)N[C@@H](CC(C)C)C(=O)N[C@H](C(N)=O)C(C)C [compound 48] (H-H[Aib]EGTFTSDVSYLK([AEEA-AEEA-γGlu-C20 diacid])E[Aib]AATQRFLEHLV-NH2)
22040 | 35408 | 0.0251 nM | 0.08 | 1000 nM | – | – | – | CC(C)C[C@H](NC(=O)[C@H](Cc1ccccc1)NC(=O)[C@H](CCCNC(=N)N)NC(=O)[C@H](CCC(N)=O)NC(=O)[C@H](CCC(N)=O)NC(=O)[C@H](C)NC(=O)[C@H](C)NC(=O)[C@@H](NC(=O)[C@H](CCC(=O)O)NC(=O)[C@H](CCCCNC(=O)COCCOCCNC(=O)COCCOCCNC(=O)CC[C@H](NC(=O)CCCCCCCCCCCCCCCCCCC(=O)O)C(=O)O)NC(=O)[C@H](CC(C)C)NC(=O)[C@H](Cc1ccc(O)cc1)NC(=O)[C@H](CO)NC(=O)[C@@H](NC(=O)[C@H](CC(=O)O)NC(=O)[C@H](CO)NC(=O)[C@@H](NC(=O)[C@H](Cc1ccccc1)NC(=O)[C@@H](NC(=O)CNC(=O)[C@H](CCC(=O)O)NC(=O)C(C)(C)NC(=O)[C@@H](N)Cc1c[nH]cn1)[C@@H](C)O)[C@@H](C)O)C(C)C)[C@@H](C)O)C(=O)N[C@@H](CCC(=O)O)C(=O)N[C@@H](Cc1c[nH]cn1)C(=O)N[C@@H](CC(C)C)C(=O)N[C@H](C(N)=O)C(C)C [compound 58] (H-H[Aib]EGTFTSDVSYLK([AEEA-AEEA-γGlu-C20 diacid])ETAAQQRFLEHLV-NH2)
2942 | – | – | 0.08 | – | 0.0158 nM | 1279 | 20 nM | CC[C@H](C)[C@H](NC(=O)[C@H](CO)NC(=O)[C@@H](NC(=O)[C@H](CC(=O)O)NC(=O)[C@H](CO)NC(=O)[C@@H](NC(=O)[C@H](Cc1ccccc1)NC(=O)[C@@H](NC(=O)CNC(=O)[C@H](CCC(=O)O)NC(=O)C(C)(C)NC(=O)[C@@H](N)Cc1c[nH]cn1)[C@@H](C)O)[C@@H](C)O)C(C)C)C(=O)N[C@@H](CC(C)C)C(=O)N[C@@H](CCCCNC(=O)COCCOCCNC(=O)COCCOCCNC(=O)CC[C@H](NC(=O)CCCCCCCCCCCCCCCCCCC(=O)O)C(=O)O)C(=O)N[C@@H](CCC(=O)O)C(=O)N[C@@H](CCC(=O)O)C(=O)N[C@@H](C)C(=O)NC(C)(C)C(=O)N[C@@H](CC(C)C)C(=O)N[C@@H](CCC(N)=O)C(=O)N[C@@H](CCCNC(=N)N)C(=O)N[C@@H](Cc1ccccc1)C(=O)N[C@@H](CC(C)C)C(=O)N[C@@H](CCC(=O)O)C(=O)N[C@@H](Cc1c[nH]cn1)C(=O)N[C@@H](CC(C)C)C(=O)N[C@H](C(N)=O)C(C)C [compound 172] (H-H[Aib]EGTFTSDVSILK([AEEA-AEEA-γGlu-C20 diacid])EEA[Aib]LQRFLEHLV-NH2)
